Data: PubChem BioAssay (NCI)
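Grown in 96-well plates, cells were treated for 48 hours with each compound at five concentrations. Insufficient inhibition: endpoint recorded as highest concentration tested. The concentration for full growth arrest is given as TGI.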

How the values were obtained:
Assay in all cases: NCI anticancer screen, dose series, 48 h
OVCAR-4 ovarian = tested on: OVCAR-4 ovarian
HCT-15 colon = tested on: HCT-15 colon
SNB-75 CNS = tested on: SNB-75 CNS
SK-MEL-28 melanoma = tested on: SK-MEL-28 melanoma
HS 578T breast = tested on: HS 578T breast
U251 CNS = tested on: U251 CNS
UACC-62 melanoma = tested on: UACC-62 melanoma
HL-60(TB) leukemia = tested on: HL-60(TB) leukemia
SF-539 CNS = tested on: SF-539 CNS
DU-145 prostate = tested on: DU-145 prostate
SK-OV-3 ovarian = tested on: SK-OV-3 ovarian
PC-3 prostate = tested on: PC-3 prostate
ACHN renal = tested on: ACHN renal
OVCAR-8 ovarian = tested on: OVCAR-8 ovarian
M14 melanoma = tested on: M14 melanoma
MDA-MB-435 = tested on: MDA-MB-435
UACC-257 melanoma = tested on: UACC-257 melanoma
KM12 colon = tested on: KM12 colon
NCI/ADR-RES ovarian = tested on: NCI/ADR-RES ovarian
IGROV1 ovarian = tested on: IGROV1 ovarian
SK-MEL-2 melanoma = tested on: SK-MEL-2 melanoma
SR leukemia = tested on: SR leukemia
MDA-MB-231 breast = tested on: MDA-MB-231 breast
SNB-19 CNS = tested on: SNB-19 CNS
OVCAR-5 ovarian = tested on: OVCAR-5 ovarian
HT29 colon = tested on: HT29 colon
T-47D breast = tested on: T-47D breast
786-0 renal = tested on: 786-0 renal
NCI-H23 lung = tested on: NCI-H23 lung
RPMI-8226 leukemia = tested on: RPMI-8226 leukemia
CCRF-CEM leukemia = tested on: CCRF-CEM leukemia
CAKI-1 renal = tested on: CAKI-1 renal
HOP-92 NSCLC = tested on: HOP-92 NSCLC
HOP-62 NSCLC = tested on: HOP-62 NSCLC
TK-10 renal = tested on: TK-10 renal
RXF 393 renal = tested on: RXF 393 renal
HCC-2998 colon = tested on: HCC-2998 colon
HCT-116 colon = tested on: HCT-116 colon
COLO 205 colon = tested on: COLO 205 colon
SF-295 CNS = tested on: SF-295 CNS
NCI-H226 lung = tested on: NCI-H226 lung
SF-268 CNS = tested on: SF-268 CNS
A549 NSCLC = tested on: A549 NSCLC
EKVX NSCLC = tested on: EKVX NSCLC
A498 renal = tested on: A498 renal
K-562 leukemia = tested on: K-562 leukemia
OVCAR-3 ovarian = tested on: OVCAR-3 ovarian
UO-31 renal = tested on: UO-31 renal
MCF7 breast = tested on: MCF7 breast
SN12C renal = tested on: SN12C renal
SW-620 colon = tested on: SW-620 colon
MOLT-4 leukemia = tested on: MOLT-4 leukemia
NCI-H522 lung = tested on: NCI-H522 lung
LOX IMVI melanoma = tested on: LOX IMVI melanoma
MALME-3M melanoma = tested on: MALME-3M melanoma
SK-MEL-5 melanoma = tested on: SK-MEL-5 melanoma
NCI-H460 lung = tested on: NCI-H460 lung
BT-549 breast = tested on: BT-549 breast

For `[N-]=[N+]=NI1OC(=O)c2ccccc21`, the TGI (OVCAR-4 ovarian) was greater than 100 µM, the TGI (HCT-15 colon) was greater than 100 µM and the TGI (SNB-75 CNS) was greater than 100 µM. For the same compound, the TGI (SK-MEL-28 melanoma) was greater than 100 µM, the TGI (HS 578T breast) was greater than 100 µM and the TGI (U251 CNS) was greater than 100 µM. The TGI (UACC-62 melanoma) was greater than 100 µM, the TGI (HL-60(TB) leukemia) was 84 µM and the TGI (SF-539 CNS) was greater than 100 µM. The TGI (DU-145 prostate) was greater than 100 µM, the TGI (SK-OV-3 ovarian) was greater than 100 µM and the TGI (PC-3 prostate) was greater than 100 µM. For the same compound, the TGI (ACHN renal) was greater than 100 µM, the TGI (OVCAR-8 ovarian) was greater than 100 µM and the TGI (M14 melanoma) was greater than 100 µM. For the same compound, the TGI (MDA-MB-435) was greater than 100 µM, the TGI (UACC-257 melanoma) was greater than 100 µM and the TGI (KM12 colon) was greater than 100 µM. For the same compound, the TGI (NCI/ADR-RES ovarian) was greater than 100 µM, the TGI (IGROV1 ovarian) was greater than 100 µM and the TGI (SK-MEL-2 melanoma) was greater than 100 µM. It also gave a TGI (SR leukemia) greater than 100 µM, a TGI (MDA-MB-231 breast) greater than 100 µM and a TGI (SNB-19 CNS) greater than 100 µM. It also gave a TGI (OVCAR-5 ovarian) greater than 100 µM, a TGI (HT29 colon) greater than 100 µM and a TGI (T-47D breast) greater than 100 µM. It also gave a TGI (786-0 renal) greater than 100 µM, a TGI (NCI-H23 lung) greater than 100 µM and a TGI (RPMI-8226 leukemia) of 65.7 µM. For the same compound, the TGI (CCRF-CEM leukemia) was greater than 100 µM, the TGI (CAKI-1 renal) was 46.9 µM and the TGI (HOP-92 NSCLC) was greater than 100 µM. The TGI (HOP-62 NSCLC) was greater than 100 µM, the TGI (TK-10 renal) was greater than 100 µM and the TGI (RXF 393 renal) was greater than 100 µM. It also gave a TGI (HCC-2998 colon) greater than 100 µM, a TGI (HCT-116 colon) greater than 100 µM and a TGI (COLO 205 colon) greater than 100 µM. The TGI (SF-295 CNS) was greater than 100 µM, the TGI (NCI-H226 lung) was greater than 100 µM and the TGI (SF-268 CNS) was greater than 100 µM. The TGI (A549 NSCLC) was greater than 100 µM, the TGI (EKVX NSCLC) was greater than 100 µM and the TGI (A498 renal) was greater than 100 µM. It also gave a TGI (K-562 leukemia) greater than 100 µM, a TGI (OVCAR-3 ovarian) greater than 100 µM and a TGI (UO-31 renal) greater than 100 µM. The TGI (MCF7 breast) was greater than 100 µM, the TGI (SN12C renal) was greater than 100 µM and the TGI (SW-620 colon) was greater than 100 µM. For the same compound, the TGI (MOLT-4 leukemia) was greater than 100 µM, the TGI (NCI-H522 lung) was 40.6 µM and the TGI (LOX IMVI melanoma) was greater than 100 µM.
With `O=CNCNCCO` the TGI (MALME-3M melanoma) was greater than 100 µM, the TGI (OVCAR-4 ovarian) was greater than 100 µM and the TGI (HCT-15 colon) was greater than 100 µM. For the same compound, the TGI (SNB-75 CNS) was greater than 100 µM, the TGI (SK-MEL-28 melanoma) was greater than 100 µM and the TGI (HS 578T breast) was greater than 100 µM. For the same compound, the TGI (U251 CNS) was greater than 100 µM, the TGI (UACC-62 melanoma) was greater than 100 µM and the TGI (HL-60(TB) leukemia) was 72.8 µM. It also gave a TGI (DU-145 prostate) greater than 100 µM, a TGI (SK-OV-3 ovarian) greater than 100 µM and a TGI (ACHN renal) greater than 100 µM. It also gave a TGI (OVCAR-8 ovarian) greater than 100 µM, a TGI (M14 melanoma) greater than 100 µM and a TGI (NCI/ADR-RES ovarian) greater than 100 µM. It also gave a TGI (IGROV1 ovarian) greater than 100 µM, a TGI (SK-MEL-2 melanoma) greater than 100 µM and a TGI (SR leukemia) greater than 100 µM. For the same compound, the TGI (SNB-19 CNS) was greater than 100 µM, the TGI (SK-MEL-5 melanoma) was greater than 100 µM and the TGI (OVCAR-5 ovarian) was greater than 100 µM. The TGI (HT29 colon) was greater than 100 µM, the TGI (T-47D breast) was greater than 100 µM and the TGI (NCI-H460 lung) was greater than 100 µM. For the same compound, the TGI (786-0 renal) was greater than 100 µM, the TGI (NCI-H23 lung) was greater than 100 µM and the TGI (RPMI-8226 leukemia) was greater than 100 µM. The TGI (CCRF-CEM leukemia) was greater than 100 µM, the TGI (CAKI-1 renal) was greater than 100 µM and the TGI (HOP-92 NSCLC) was greater than 100 µM. It also gave a TGI (HOP-62 NSCLC) greater than 100 µM, a TGI (TK-10 renal) greater than 100 µM and a TGI (RXF 393 renal) greater than 100 µM. For the same compound, the TGI (HCC-2998 colon) was greater than 100 µM, the TGI (HCT-116 colon) was greater than 100 µM and the TGI (NCI-H226 lung) was greater than 100 µM. The TGI (SF-268 CNS) was greater than 100 µM, the TGI (A549 NSCLC) was greater than 100 µM and the TGI (EKVX NSCLC) was greater than 100 µM. The TGI (A498 renal) was greater than 100 µM, the TGI (BT-549 breast) was greater than 100 µM and the TGI (K-562 leukemia) was greater than 100 µM. For the same compound, the TGI (OVCAR-3 ovarian) was greater than 100 µM, the TGI (UO-31 renal) was greater than 100 µM and the TGI (MCF7 breast) was greater than 100 µM. The TGI (SW-620 colon) was greater than 100 µM and the TGI (MOLT-4 leukemia) was greater than 100 µM.
